# Test results from patent US5621102A, “Process for preparing enantiomerically pure xanthine derivatives” (Cell Therapeutics, Inc., priority 1995, dated 1997).
# Experiments:
# thymocytes = test: thymocyte costimulator assay (ConA and IL-1α or IL-2); format: cell-based, mice; settings: drug added two hours prior to activation
# Description: CT1501R was added to the cells at the doses indicated two hours prior to activation with ConA and IL-1α or IL-2. Background counts were less than 200 cpm.
# A thymocyte costimulator assay is conducted to evaluate the inventive compounds to inhibit activation and proliferation of thymocytes caused by stimulation with Con A and interleukin-1 (IL-1), or […]. Thymuses are obtained from mice (e.g., female Balb/C mice) and the thymuses are removed and dissociated into culture media (e.g., RPMI 1640 without serum supplementation). The dissociated thymus tissue and cell suspension is transferred to centrifuge tubes and allowed to settle, washed with HBSS and resuspended in serum-supplemented culture media (e.g., RPMI 1640 with 10% fetal calf serum). Any contaminating red cells are lysed, and viable cells are resuspended and counted. Thymocytes are plated (e.g., 96-well plates at a density of 2×10^5 cells/well) and a stimulating agent, such as Con A, IL-1 (e.g., IL-1α) or IL-2 is added to the well. The cells are incubated for 4 days at 37 ° C. On the fourth day, the ceils are pulsed with tritiated thymidine and cell proliferation determined. Inventive compounds are added at the time of stimulating agent addition.
# [1] = test system: TNF-α release from LPS-activated mouse peritoneal macrophages; test: TNF-α release from LPS stimulated PEC, ELISA; format: cell-based; settings: Peritoneal macrophage
# Description: R. Cells were isolated and treated with or without various concentrations of CT1501R one hour prior to LPS activation ([…]). Twenty four hours later the supernalants were collected assayed for TNF-α by ELISA (+/-SD).
# Murine peritoneal exudate cell macrophages (PEC) were isolated by perfusion of mouse peritoneum and plated into 96-well trays at 5×10^5 cells per well. […] At various times thereafter, supernatants were removed and levels of either TNF-α or IL-1α were assayed using commercial 96-well microtiter immunoassay kits (Genzyme; TNF; Endogen, Boston, Mass.; IL-1α) according to manufacturer's specifications. […] 4000 cells were plated into each well of a 96-well microtiter plate and allowed to incubate for 72 hrs at 37° C. […] Either the HUVEC or U937 cells were stimulated with either LPS, IL-1α or TNF-α for 12 hrs. For the adhesion assay, U937 cells were labeled with the fluorescent viability stain, 2',7'-bis-(2-carboxyethyl)-5-(and-6)-carboxyfluorescein acetoxymethyl ester (BCECF). […] The cells were washed once with full media and 50,000 cells/well added to the HUVEC cultures. The samples were incubated at 37° C. for 30 min, inverted and centrifuged for 10 min at 400×g. After addition of […] Hanks Balanced Salt Solution (HBSS), the microtiter plate was then analyzed on a Millipore Cytofiuor fluorescent plate reader (excitation 488 nm; emission 525 nm). […]
# [2] = test system: adhesion of activated U937 cells to HUVEC; test: adhesion of IL-1α activated U937 cells to non-stimulated HUVEC; format: cell-based, human; settings: 250 μM pre-treatment of U937 cells
# Description: U937 cells were stimulated with various concentrations of IL-1-α with or without the addition of 250 µM CT1501R one hour prior to addition of IL-1-α. Twelve hours later, the U937 cells were stained with BCECF and allowed to adhere to HUVEC. FIG. 22 is the relative BCECF fluorescence (+/-SD) for each of the treatment groups.
# Murine peritoneal exudate cell macrophages (PEC) were isolated by perfusion of mouse peritoneum and plated into 96-well trays at 5×10^5 cells per well. Cells were stimulated with 5 μg/ml Salmonella abortus equi-derived endotoxin CLPS; Sigma Chemical Co., L-1887) or 50 ng/ml IL-1α (Genzyme; Cambridge, Mass.) with or without the addition of CT1501R added to the cultures one hour prior to addition of the stimulus. At various times thereafter, supernatants were removed and levels of either TNF-α or IL-1α were assayed using commercial 96-well microtiter immunoassay kits (Genzyme; TNF; Endogen, Boston, Mass.; IL-1α) according to manufacturer's specifications. […] After addition of […] Hanks Balanced Salt Solution (HBSS), the microtiter plate was then analyzed on a Millipore Cytofiuor fluorescent plate reader (excitation 488 nm; emission 525 nm). […]
# IL-1α = test: mouse plasma IL-1α ELISA after endotoxin; format: in vivo, mice
# Description: FIG. 7 illustrates data from mouse plasma IL-1α ELISA measurements. Data were compiled from an average of duplicate ELISA measurements from a single experiment with each point representing pooled serum from three mice.
# For ELISA measurements of cytokine levels in plasma, blood was collected by retro-orbital or cardiac puncture of anesthetized mice, immediately centrifuged and the EDTA plasma stored at -70° C. Particulate free plasma was thawed on ice and cytokine levels determined utilizing commercial ELISA assays with normal mouse plasma used to generate standard curves. Murine tumor necrosis factor-α and interleukin-1α kits were purchased from Genzyme (Cambridge, Mass.) and Endogen (Boston, Mass.), respectively. Each data point was an average of two ELISA measurements made from EDTA serum pooled from three mice. The data summarized in Table 3 were compiled from two independent experiments; data from Table 4 and 5 were from single experiments of three mice per data point.
# In particular, peak levels observed at 6, 12 and 18 hours post endotoxin were decreased 1.2, 4.3 and 3.2-fold, respectively. Finally, IL-6 measurements were made in a similar manner (Table 6, FIG. 8).
smiles,measurement,setting,value
"C[C@@H](O)CCCCn1c(=O)c2c(ncn2C)n(C)c1=O [CT1501R, (R)-1-(5-hydroxyhexyl)-3,7-dimethylxanthine]",inhibition of thymocyte proliferation,thymocytes,inhibited thymocyte proliferation in a dose-response manner
same,inhibition at 500 µM,"[1]; 500 μM, read-out: inhibitory effects, % of the maximal LPS stimulation (1428 pg/ml)",~40%
same,IC50,"[1]; drug 1 hour before LPS (10 μg/ml LPS), read-out: IC50 for TNF-α inhibition (concentration for 50% inhibition)",~30 µM
same,IL-1α mediated increase in adhesion of U937 cells to HUVEC,[2],effectively blocked the IL-1α mediated increase in adhesion to HUVEC to near background levels
same,decrease of peak plasma IL-1α vs endotoxin only,IL-1α; 6 hours post endotoxin,1.2 fold
same,decrease of peak plasma IL-1α vs endotoxin only,IL-1α; 12 hours post endotoxin,4.3 fold
same,decrease of peak plasma IL-1α vs endotoxin only,IL-1α; 18 hours post endotoxin,3.2 fold
